US11945822B2, “Pyrazolo-triazine and/or pyrazolo-pxrimidine derivatives as selective inhibitor of cyclin dependent kinase” (QURIENT CO., LTD., priority 2018, dated 2024)

Key:
CDK1/Cyclin B = biological target: T1, CDK1/Cyclin B (Homo sapiens, UniProt P06493); experiment: Enzymatic assay for CDK1 (FRET based LANCE Ultra kinase assay); assay type: biochemical; conditions: read-out: CDK1 enzymatic activity (IC50 range)
T1 construct: purchased Invitrogen PR4768C
Procedure, shortened: (§1)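 TR-FRET (LANCE Ultra) kinase assay at ATP Km, ULight-MBP peptide substrate (68 nM), 8-dose 4-fold compound series in DMSO. Enzymes: […]; 60 min at 23° C., stopped with EDTA plus Eu-anti-phospho-MBP antibody, read 665/615 nm after 60 min.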

CDK2/Cyclin A = biological target: T2, CDK2/Cyclin A (Homo sapiens, UniProt P24941); experiment: Enzymatic assay for CDK2 (FRET based LANCE Ultra kinase assay); assay type: biochemical; conditions: read-out: CDK2 enzymatic activity (IC50 range)
T2 construct: purchased Invitrogen PV6290
Procedure, shortened: as §1

CDK5/p25 = biological target: T3, CDK5/p25 (Homo sapiens, UniProt Q00535); experiment: Enzymatic assay for CDK5 (FRET based LANCE Ultra kinase assay); assay type: biochemical; conditions: read-out: CDK5 enzymatic activity (IC50 range)
T3 construct: purchased Invitrogen PR8543B
Procedure, shortened: as §1

CDK7/Cyclin H/MNAT1 = biological target: T4, CDK7/Cyclin H/MNAT1 (Homo sapiens, UniProt P50613); experiment: Enzymatic assay for CDK7 (FRET based LANCE Ultra kinase assay); assay type: biochemical; conditions: for IC50: read-out: CDK7 enzymatic activity (IC50 range)
T4 construct: purchased Invitrogen PR6749B
Procedure, shortened: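 Inhibition was measured at Km ATP by time-resolved FRET between a Eu anti-phospho antibody and a phosphorylated ULight peptide. The enzyme was the purified CDK7/cyclin complex, and data were curve-fitted.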

H460 = experiment: Cellular H460 viability assay (CellTiter-Glo, 72 hours); assay type: cell-based; conditions: Homo sapiens, NCI-H460
Procedure, shortened: (§2)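 Growth inhibition is assessed over a 72-hour incubation at 37 °C in 5% CO2, relative to DMSO vehicle (final concentration less than 0.1%). Luminescence from CellTiter-Glo serves as the viability signal.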

RPMI-8226 = experiment: Cellular RPMI-8226 viability assay (CellTiter-Glo, 72 hours); assay type: cell-based; conditions: Homo sapiens
Procedure: All cell lines were routinely tested for mycoplasma.
The effect of the CDK7 inhibitor to inhibit the growth of target cancer cells was evaluated through the 72 hours time period of viability assay. Briefly, the candidate cell line ware plated in 96 well plate at the following density of cells respectively. […] DMSO solvent without compound served as a control and final DMSO concentration less than 0.1%. After 72 hours of incubation at 37° C., 5% CO2 incubator, cells were analyzed for the viability using the CellTiter-Glo Luminescent Cell Viability Assay (Promega, Cat #G7570). All viability assays were performed in duplicate and Luminescence was read using an Envision (Perkin Elmer, USA). Data was analyzed using XLfit software.

HCT116 = experiment: Cellular HCT116 viability assay (CellTiter-Glo, 72 hours); assay type: cell-based; conditions: Homo sapiens, HCT-116
Procedure, shortened: as §2

MOLT-4 = experiment: Cellular MOLT-4 viability assay (CellTiter-Glo, 72 hours); assay type: cell-based; conditions: Homo sapiens, MOLT4 viability assay
Procedure, shortened: as §2

MV4-11 = experiment: Cellular MV4-11 viability assay (CellTiter-Glo, 72 hours); assay type: cell-based; conditions: Homo sapiens
Procedure, shortened: as §2

T1 sequence (P06493 whole entry): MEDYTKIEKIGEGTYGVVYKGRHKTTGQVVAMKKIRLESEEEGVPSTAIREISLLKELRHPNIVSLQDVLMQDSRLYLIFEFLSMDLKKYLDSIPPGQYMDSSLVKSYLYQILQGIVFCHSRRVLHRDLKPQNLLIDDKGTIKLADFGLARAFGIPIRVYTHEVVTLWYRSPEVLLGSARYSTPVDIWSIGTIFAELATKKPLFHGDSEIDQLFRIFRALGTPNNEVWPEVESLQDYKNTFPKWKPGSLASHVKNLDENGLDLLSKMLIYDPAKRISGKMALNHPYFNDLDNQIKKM
T1 sequence (P14635 whole entry partner): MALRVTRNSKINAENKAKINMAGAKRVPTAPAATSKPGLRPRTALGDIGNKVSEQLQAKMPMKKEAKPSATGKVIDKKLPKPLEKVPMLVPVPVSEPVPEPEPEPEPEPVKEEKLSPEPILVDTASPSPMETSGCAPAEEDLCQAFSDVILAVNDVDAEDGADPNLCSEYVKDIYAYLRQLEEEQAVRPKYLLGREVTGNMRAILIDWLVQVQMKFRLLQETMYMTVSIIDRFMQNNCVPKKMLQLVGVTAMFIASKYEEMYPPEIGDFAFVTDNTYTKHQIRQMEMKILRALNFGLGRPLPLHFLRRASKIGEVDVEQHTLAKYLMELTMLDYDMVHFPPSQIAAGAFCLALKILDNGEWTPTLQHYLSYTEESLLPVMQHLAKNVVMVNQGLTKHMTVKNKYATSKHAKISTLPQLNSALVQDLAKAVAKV
T4 sequence (P50613 whole entry): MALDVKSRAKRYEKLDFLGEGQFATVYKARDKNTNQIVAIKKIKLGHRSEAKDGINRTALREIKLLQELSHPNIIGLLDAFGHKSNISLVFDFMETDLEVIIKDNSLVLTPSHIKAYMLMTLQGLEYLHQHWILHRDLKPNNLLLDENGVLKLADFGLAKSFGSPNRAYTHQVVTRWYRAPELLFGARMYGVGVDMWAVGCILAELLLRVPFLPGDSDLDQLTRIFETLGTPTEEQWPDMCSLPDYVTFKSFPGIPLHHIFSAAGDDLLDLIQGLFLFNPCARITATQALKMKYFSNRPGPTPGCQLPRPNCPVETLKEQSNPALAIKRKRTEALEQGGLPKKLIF
T4 sequence (P51946 whole entry partner): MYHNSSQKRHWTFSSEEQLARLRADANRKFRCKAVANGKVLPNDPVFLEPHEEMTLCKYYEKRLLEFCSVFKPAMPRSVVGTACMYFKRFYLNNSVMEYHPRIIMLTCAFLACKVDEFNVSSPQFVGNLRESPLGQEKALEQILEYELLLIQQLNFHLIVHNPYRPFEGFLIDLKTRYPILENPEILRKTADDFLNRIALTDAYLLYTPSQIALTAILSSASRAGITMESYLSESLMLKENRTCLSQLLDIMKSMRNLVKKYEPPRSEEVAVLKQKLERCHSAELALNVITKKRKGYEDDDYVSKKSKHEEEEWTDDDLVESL
T4 sequence (P51948 whole entry partner): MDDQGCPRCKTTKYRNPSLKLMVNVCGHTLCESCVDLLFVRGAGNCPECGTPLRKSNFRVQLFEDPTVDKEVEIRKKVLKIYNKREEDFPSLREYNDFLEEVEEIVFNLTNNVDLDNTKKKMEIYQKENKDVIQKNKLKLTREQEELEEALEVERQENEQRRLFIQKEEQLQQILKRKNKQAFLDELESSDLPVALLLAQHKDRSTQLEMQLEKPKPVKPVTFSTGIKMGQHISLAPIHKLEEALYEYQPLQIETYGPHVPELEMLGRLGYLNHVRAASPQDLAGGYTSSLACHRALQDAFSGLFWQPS
T3 sequence (Q00535 whole entry): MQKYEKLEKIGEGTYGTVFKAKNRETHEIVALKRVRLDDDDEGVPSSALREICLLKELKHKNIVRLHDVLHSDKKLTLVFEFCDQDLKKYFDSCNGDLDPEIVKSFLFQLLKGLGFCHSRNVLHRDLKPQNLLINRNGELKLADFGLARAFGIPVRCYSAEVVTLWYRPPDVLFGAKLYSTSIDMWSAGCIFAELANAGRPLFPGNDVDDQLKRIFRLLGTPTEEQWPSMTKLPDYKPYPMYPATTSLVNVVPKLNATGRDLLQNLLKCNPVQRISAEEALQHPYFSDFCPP
T3 sequence (Q15078 99-307 partner limits assumed): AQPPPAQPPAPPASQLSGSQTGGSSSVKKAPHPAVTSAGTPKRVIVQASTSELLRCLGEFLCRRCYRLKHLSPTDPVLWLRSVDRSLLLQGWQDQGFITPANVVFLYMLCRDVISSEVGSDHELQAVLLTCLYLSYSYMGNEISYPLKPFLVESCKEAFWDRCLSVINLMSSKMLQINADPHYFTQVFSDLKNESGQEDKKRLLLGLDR

Structure (SMILES)	IC50 (CDK1/Cyclin B) [nM]	IC50 (CDK2/Cyclin A) [nM]	IC50 (CDK5/p25) [nM]	CDK1/CDK7: Selectivity of CDK7 inhibition over CDK1 inhibition (CDK7/Cyclin H/MNAT1)	CDK2/CDK7: Selectivity of CDK7 inhibition over CDK2 inhibition (CDK7/Cyclin H/MNAT1)	CDK5/CDK7: Selectivity of CDK7 inhibition over CDK5 inhibition (CDK7/Cyclin H/MNAT1)	IC50 (CDK7/Cyclin H/MNAT1) [nM]	IC50 (H460) [nM]	IC50 (RPMI-8226) [nM]	IC50 (HCT116) [nM]	IC50 (MOLT-4) [nM]	IC50 (MV4-11) [nM]
CC(C)c1cnn2c(NCc3cccc(-c4cc5ccccc5[nH]4)c3)nc(N3CCC(N)CC3)nc12 [Compound 118]	> 1000	100 to 1000	100 to 1000	B (B=less than 200 fold, but greater than 20 fold)	B (B=less than 200 fold, but greater than 20 fold)	B (B=less than 200 fold, but greater than 20 fold)	< 100	< 1000	< 1000	–	–	–
CC(C)c1cnn2c(NCc3cccc4ccc(N)nc34)nc(N3CCC(N)CC3)nc12 [Compound 142]	> 1000	100 to 1000	100 to 1000	A (A=greater than 200 fold)	B (B=less than 200 fold, but greater than 20 fold)	B (B=less than 200 fold, but greater than 20 fold)	< 100	1000 to 10000	1000 to 10000	–	–	–
CC(C)c1cnn2c(NCc3ccccc3-c3cc4ccccc4[nH]3)nc(N3CCC[C@@H](N)C3)nc12 [Compound 131]	> 1000	> 1000	> 1000	B (B=less than 200 fold, but greater than 20 fold)	B (B=less than 200 fold, but greater than 20 fold)	B (B=less than 200 fold, but greater than 20 fold)	< 100	–	1000 to 10000	–	–	–
CC(C)c1cnn2c(NCc3ccccc3-n3cc4c(n3)CCC(=O)C4)nc(N3CCC(N)CC3)nc12 [Compound 132]	> 1000	> 1000	100 to 1000	A (A=greater than 200 fold)	B (B=less than 200 fold, but greater than 20 fold)	B (B=less than 200 fold, but greater than 20 fold)	< 100	1000 to 10000	1000 to 10000	–	–	–
CC(C)c1cnn2c(NCc3ccccc3-c3cc4cc([N+](=O)[O-])ccc4[nH]3)nc(N3CCC(N)CC3)nc12 [Compound 121]	> 1000	100 to 1000	100 to 1000	A (A=greater than 200 fold)	B (B=less than 200 fold, but greater than 20 fold)	B (B=less than 200 fold, but greater than 20 fold)	< 100	< 1000	< 1000	–	–	–
CC(=O)c1ccc2nn(-c3ccccc3CNc3nc(N4CCC(N)CC4)nc4c(C(C)C)cnn34)cc2c1 [Compound 127]	> 1000	100 to 1000	100 to 1000	A (A=greater than 200 fold)	B (B=less than 200 fold, but greater than 20 fold)	B (B=less than 200 fold, but greater than 20 fold)	< 100	< 1000	< 1000	–	–	–
CC(C)c1cnn2c(NCc3ccccc3-c3cc4ccccc4[nH]3)nc(N3CCCC(N)C3)nc12 (racemic) [Compound 125]	> 1000	> 1000	> 1000	A (A=greater than 200 fold)	B (B=less than 200 fold, but greater than 20 fold)	B (B=less than 200 fold, but greater than 20 fold)	< 100	–	1000 to 10000	–	–	–
CNC(=O)c1ccccc1CNc1nc(N2CCC(N)CC2)nc2c(C(C)C)cnn12 [Compound 19]	> 1000	100 to 1000	100 to 1000	A (A=greater than 200 fold)	B (B=less than 200 fold, but greater than 20 fold)	B (B=less than 200 fold, but greater than 20 fold)	< 100	–	< 1000	–	–	–
CCC(O)c1cnn2c(NCc3ccccc3-n3cccn3)nc(N3CCC(N)CC3)nc12 (racemic) [Compound 52]	> 1000	100 to 1000	100 to 1000	C (C=less than 20 fold)	C (C=less than 20 fold)	C (C=less than 20 fold)	< 100	1000 to 10000	–	> 10000	1000 to 10000	–
CC(C)c1cnn2c(NCc3ccccc3NC(=O)c3cccc(NC(=O)CCCN(C)C)c3)nc(N3CCC(N)CC3)nc12 [Compound 89]	> 1000	> 1000	100 to 1000	A (A=greater than 200 fold)	A (A=greater than 200 fold)	B (B=less than 200 fold, but greater than 20 fold)	< 100	–	–	1000 to 10000	1000 to 10000	< 1000
CC(C)c1cnn2c(NCc3ccccc3-n3cccn3)nc(-c3ccc(C(=O)N4CCC(N)CC4)cc3)nc12 [Compound 172]	> 1000	100 to 1000	100 to 1000	A (A=greater than 200 fold)	B (B=less than 200 fold, but greater than 20 fold)	B (B=less than 200 fold, but greater than 20 fold)	< 100	1000 to 10000	–	1000 to 10000	1000 to 10000	–
